Measurements as given in US9901636B2, “Conjugate of a photosensitiser and chitosan and uses thereof” (PCI BIOTECH AS, priority 2012, dated 2018).

Key:
[1] = Fluorescence quantum yield, steady-state comparative method vs anthracene; assay type: physicochemical; settings: DMSO at room temperature
Protocol: UV-Vis measurements were recorded on a Perkin-Elmer Lambda 25 UV-Vis. spectrometer equipped with a Peltier Temperature Programmer. Fluorescence emission spectra were obtained using a SPEX FluoroMax spectrometer, using a cell with spectral range 170-2200 nm (Spectrocell Corporation, Oreland, Pa., USA). Absorption spectra were recorded at 20° C. and fluorescence emission spectra were recorded at ambient temperature, using quartz cuvette with a 10 mm path length. All the fluorescence spectra were recorded with constant slit widths, 1 nm for excitation and 1 nm for emission and fluorescence spectra were averaged over three scans for quantum yield study. However, for FIG. 5 (III) fluorescence spectra were obtained with slit widths 3 nm for excitation and 3 nm for emission.
Fluorescence quantum yields of compounds 3, 5, 16A-19B (all excited at Δex.=λmax=419 nm) were determined relative to a dilute solution of standard anthracene (φF=0.27, λex=365.5 nm) in absolute ethanol by using the steady-state comparative method. using the following equation: φX=φST(GradX/GradST)(ηS^2,ηST^2) where, the subscripts ST and X denote standard and test respectively, φ is the fluorescence quantum yield, Grad the gradient from the plot of integrated fluorescence intensity versus absorbance, and η the refractive index of the solvent.

[2] = Partitioning in aqueous:CHCl3 two-phase system; assay type: physicochemical; settings: two-phase H2O/CHCl3 system (FIG. 6)
Source text: (A) TPP(p-NH2)13 (B) TPPNH-Pip 5 (C) TPPp0.25-CS-TMA0.75 17A (D) TPPp0.25-CS-MP0.75 19A. Aqueous phases are shown on top.
In the ^1H NMR spectra of final compound TPPp0.1-CS-MP0.9 18A all peaks of the chitosan backbone along with the 1-methyl piperazine peaks can be clearly identified; however there is no observable NMR signal of the TPP moiety (FIG. 5E). […] In d6-DMSO the TPP peaks could be observed but in this case the chitosan backbone peaks were broadened and not clearly identifiable. […] The TPPp0.1-CS-MP0.9 18A has a dark red color confirming the presence of the PS.

[3] = Bhaumik et al., excited at 418 nm in DMF, TPP as standard; cited from earlier work
[4] = Table 4, λabs 420 nm, λem 653 nm
[5] = Table 2, excited at 419 nm, standard anthracene

Compound	Quantum Yield (φF) [1, 4]	Quantum Yield (φF) [1, 5]	Partitioning between aqueous and organic phase [2]	Fluorescence quantum yield (φF), literature value [3]
5-(4-Carboxyphenyl)-10,15,20-triphenylchlorin [Compound 26]	0.01331			
Nc1ccc(-c2c3nc(c(-c4ccccc4)c4ccc([nH]4)c(-c4ccccc4)c4nc(c(-c5ccccc5)c5ccc2[nH]5)C=C4)C=C3)cc1 [Compound 3, 5-(4-Aminophenyl)-10,15,20-triphenylporphyrin, reference compound]		0.0002	did not partition into the aqueous phase	0.05
O=C(CN1CCNCC1)Nc1ccc(-c2c3nc(c(-c4ccccc4)c4ccc([nH]4)c(-c4ccccc4)c4nc(c(-c5ccccc5)c5ccc2[nH]5)C=C4)C=C3)cc1 [Compound 5, 5-(4α-Piperazineacetylamidophenyl)-10,15,20-triphenylporphyrin]		0.0036	did not partition into the aqueous phase	
Nc1ccc(-c2c3nc(c(-c4ccccc4)c4ccc([nH]4)c(-c4ccccc4)c4nc(c(-c5ccccc5)c5ccc2[nH]5)C=C4)CC3)cc1 [Compound 20, 5-(4-Aminophenyl)-10,15,20-triphenylchlorin]	0.00246			
